Laboratory results as given in the supplement of paper PMC10883282.
± gives the standard deviation of the averaged measurements.

Test system: G401
Assay: relative viability vs DMSO control (72 h) (fraction); higher = more viable cells
Method in brief: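 Sarcoma cell lines went into 384-well plates at densities chosen to reach 80–90% confluence. After 24 h, each well received 2.5 µl of serially diluted compound, with source plates running from 10 mM to 0.0002 mM, and the plates were kept 72 h at 37 °C, 5% CO2, alongside 0.1% DMSO vehicle and a 5 µM positive control. Relative viability was derived from ATPLite readings as percent growth and averaged over up to triplicate wells. The data were then rescaled so that 1 stands for full and 0 for none.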

## COc1cc2nccc(Oc3ccc(NC(=O)Nc4cc(C)on4)c(Cl)c3)c2cc1OC [Tivozanib]
0.00017 µM
  relative viability: 1.01 ± 0.025
0.00051 µM
  relative viability: 1.03 ± 0.035
0.00152 µM
  relative viability: 1.04 ± 0.025
0.00457 µM
  relative viability: 1.04 ± 0.019
0.01372 µM
  relative viability: 1.04 ± 0.023
0.04115 µM
  relative viability: 0.98 ± 0.044
0.1235 µM
  relative viability: 0.992 ± 0.056
0.3704 µM
  relative viability: 0.99 ± 0.021
1.111 µM
  relative viability: 0.965 ± 0.034
3.333 µM
  relative viability: 0.713 ± 0.019
10 µM
  relative viability: 0.381 ± 0.0095

## C[C@]1(O)C[C@@H](c2nc(-c3ccc4ccc(-c5ccccc5)nc4c3)c3c(N)nccn32)C1 [Linsitinib]
0.00017 µM
  relative viability: 1 ± 0.063
0.00051 µM
  relative viability: 0.974 ± 0.026
0.00152 µM
  relative viability: 1.02 ± 0.048
0.00457 µM
  relative viability: 0.955 ± 0.013
0.01372 µM
  relative viability: 0.992 ± 0.023
0.04115 µM
  relative viability: 0.894 ± 0.034
0.1235 µM
  relative viability: 0.791 ± 0.049
0.3704 µM
  relative viability: 0.668 ± 0.013
1.111 µM
  relative viability: 0.627 ± 0.007
3.333 µM
  relative viability: 0.562 ± 0.017
10 µM
  relative viability: 0.466 ± 0.026

## C=CC(=O)Nc1cccc(Oc2nc(Nc3ccc(N4CCN(C)CC4)cc3)nc3ccsc23)c1 [Olmutinib]
0.00017 µM
  relative viability: 0.984 ± 0.021
0.00051 µM
  relative viability: 0.976 ± 0.048
0.00152 µM
  relative viability: 0.969 ± 0.022
0.00457 µM
  relative viability: 0.984 ± 0.039
0.01372 µM
  relative viability: 0.96 ± 0.03
0.04115 µM
  relative viability: 0.986 ± 0.043
0.1235 µM
  relative viability: 1 ± 0.041
0.3704 µM
  relative viability: 1.01 ± 0.043
1.111 µM
  relative viability: 0.916 ± 0.018
3.333 µM
  relative viability: 0.759 ± 0.019
10 µM
  relative viability: 0.481 ± 0.036

## O=C(Nc1cnn2ccc(N3CCC[C@@H]3c3cc(F)ccc3F)nc12)N1CC[C@H](O)C1 [Larotrectinib]
0.00017 µM
  relative viability: 1.032 ± 0.0041
0.00051 µM
  relative viability: 1.03 ± 0.016
0.00152 µM
  relative viability: 1.021 ± 0.0029
0.00457 µM
  relative viability: 1.04 ± 0.033
0.01372 µM
  relative viability: 1.04 ± 0.03
0.04115 µM
  relative viability: 1.01 ± 0.019
0.1235 µM
  relative viability: 1.02 ± 0.028
0.3704 µM
  relative viability: 1 ± 0.014
1.111 µM
  relative viability: 1 ± 0.048
3.333 µM
  relative viability: 0.97 ± 0.025
10 µM
  relative viability: 0.916 ± 0.034
